# Measured values published in publication PMC7600788, “Sequence Permutation Generates Peptides with Different Antimicrobial and Antibiofilm Activities” (Pharmaceuticals, 2020).
# No end group written: not given here.
# Legend:
# [1] = HPLC retention time measurement (reverse-phase C18); format: physicochemical
# Method: The retention time of the peptide was measured on a Waters HPLC system equipped with an analytical reverse-phase WATERS C18 column (4.6 × 250 mm). The peptide detected at 220 and 280 nm was eluted with a gradient of acetonitrile (containing 1% TFA) from 5% to 95% at a flow rate of 1 mL/min [22].
# S. aureus USA300 = format: cell-based, Staphylococcus aureus; conditions: USA300
# Method: (§1) The antibacterial activity of peptides was evaluated using a standard broth microdilution protocol with minor modifications as previously described. In brief, logarithmic phase bacterial cultures (i.e., optical density at 600 nm ≈ 0.5) were diluted to OD600~0.001 and partitioned into a 96-well polystyrene microplate at 90 μL per well. After treatment with 10 μL of peptide solutions two-fold diluted to various concentrations, microplates were incubated at 37 °C overnight and read on a ChroMate 4300 Microplate Reader at 630 nm (GMI, Ramsey, MN). […] Minimal bactericidal concentration (MBC) was determined by plating the clear wells at MIC or above. The peptide concentration that caused no bacterial growth on the petri dish is MBC.
# E. coli ML35p = assay: Simultaneous outer and inner membrane permeation (nitrocefin / ONPG); format: cell-based, Escherichia coli; conditions: 3.1 µM
# Excerpt: To confirm the mechanism of action, we also performed membrane permeation using a reporter strain of E. coli ML35p. This strain enabled simultaneous monitoring of membrane permeation of both the inner and outer membranes of Gram-negative bacterium E. coli. Both WW295 and WW298 were included in the experiment. […] This is indicated by the sharp development of absorbance at 490 nm for nitrocefin (panel A) and at 420 nm for ONPG (panel B).
# The E. coli ML-35p strain was utilized to probe the permeation of both the outer membrane (OM) and inner membrane (IM). This strain was engineered to have two membrane reporters. Nitrocefin is used for detection of OM permeabilization. Nitrocefin is excluded from the periplasm. […] The chromogenic cleavage product was spectrophotometrically monitored at 490 nm. […] However, permeabilization of the IM helps ONPG to enter cytoplasm and get cleaved by cytoplasmic β-galactosidase into o-nitrophenol, which can be detected spectrophotometrically at 420 nm. […] Absorbances at both 490 and at 420 nm were monitored using FLUOstar Omega (BMG, Labtech, NC, USA) simultaneously. After shaking at 100 rpm, readings were taken every 2 min for a total of 40 min at 37 °C. Data were analyzed using the MARS data analysis software provided by the manufacturer and representative plots were made using the GraphPad Prism 7 software.
# S. aureus Mu50 = format: cell-based, Staphylococcus aureus; conditions: Mu50
# Method: (§2) The antimicrobial activity spectrum of the WW peptide series was performed on a panel of Gram-positive and -negative bacteria using the standard broth micro-dilution method with minor modifications as described. […] There was a small change in the case of Pseudomonas aeruginosa and Acinetobacter baumannii up to two-fold. Four-fold changes were found for Staphylococcus aureus, Staphylococcus epidermidis, Escherichia coli, and Bacillus subtilis. However, we observed over eight-fold MIC changes for Klebsiella pneumoniae and vancomycin-resistant enterococcus (VRE). […] We also observed more than eight-fold changes in minimal bacterial killing concentrations.
# as §1
# E. coli ATCC 25922 = format: cell-based, Escherichia coli; conditions: ATCC 25922
# Method: To gain additional insight, we also compared the effects of physiological saline and human serum on the antibacterial activities of WW291-WW298 using both E. coli and S. aureus (Table 3). In our assays, salts and serum were present during the entire course of the experiment. […] Thus, WW295 and WW298 stand out in terms of activity robustness (bold in Table 3).
# as §1
# S. aureus USA300 LAC = assay: Membrane depolarization, DiBAC4(3); format: cell-based, Staphylococcus aureus; conditions: 12.5 µM
# Method: Bacteria surfaces are negative and cationic peptides are able to neutralize the negative charge, thereby reducing membrane potential. To test this possibility, we evaluated the peptides against S. aureus USA300 LAC using a fluorescent indicator dye, the DiBAC4(3) (Figure 5).
# The overnight culture of S. aureus USA300 LAC was grown in TSB media to the exponential phase. Cells were then pelleted and washed with PBS twice, and re-suspended in twice the volume of PBS containing 25 mM glucose for 15 min at 37 °C. For membrane depolarization measurements, 250 nM (final concentration) of the dye DiBAC4(3) (bis-(1,3-dibutylbarbituric acid) trimethine oxonol (ANASPEC, Fremont, CA, USA) was added, and vortexed gently. Ninety microliters of the energized bacteria solution were then added in a 96-well microtiter plate (Corning COSTAR). The plate was immediately placed into a FLUOstar Omega (BMG LABTECH Inc., Cary, NC, USA) microplate reader and fluorescence was measured for 20 min. Once the readings are stabilized, 10 μL of peptide solution were added and the fluorescence readings were continued for another 40 min. Measurements were done at an excitation and emission wavelengths of 485 and 520 nm, respectively. Triton X-100 (0.1%) was included as a positive control.
# P. aeruginosa PAO1 = format: cell-based, Pseudomonas aeruginosa; conditions: PAO1
# Method: as §2, §1
# K. pneumonia ATCC 13883 = conditions: cited from earlier work
# Excerpt: Table 2 Antibacterial activities of the WW peptides against various bacteria. | column: Minimal Inhibitory Concentration (MIC, μM) / KP ^a
# B. subtilis 167 = format: cell-based, Bacillus subtilis; conditions: 167
# Method: as §2, §1
sequence,measurement,setting,value
RKIWWWWL [WW295],hydrophobicity implied by retention time (in words),[1]; reverse-phase HPLC C18,slightly higher hydrophobicity
same,"HPLC (tr, min)","[1]; reverse-phase Waters C18 4.6 × 250 mm, acetonitrile (1% TFA) gradient 5% to 95%, 1 mL/min, detection 220 and 280 nm, taken as measure of hydrophobicity",12.453 min
same,"MBC, USA300",S. aureus USA300,12.5 µM
same,"outer and inner membrane permeation (nitrocefin 490 nm, ONPG 420 nm)",E. coli ML35p,entered both outer and inner membranes
same,"Minimal Inhibitory Concentration (MIC), SA",S. aureus Mu50,12.5 µM
same,"MIC, +150 mM NaCl",E. coli ATCC 25922,6.2 µM
same,"MIC, +10% Human Serum",E. coli ATCC 25922,12.5 µM
same,"MIC, TSB",E. coli ATCC 25922,3.1 µM
same,membrane depolarization (DiBAC4(3) fluorescence),S. aureus USA300 LAC,less active in depolarizing the membranes
same,"Minimal Inhibitory Concentration (MIC), PA",P. aeruginosa PAO1,25 to 50 µM
same,"Minimal Inhibitory Concentration (MIC), KP",K. pneumonia ATCC 13883,3.1 to 6.2 µM
same,"Minimal Inhibitory Concentration (MIC), BS",B. subtilis 167,12.5 µM
